Like-named read-outs stand apart in the source and are kept apart here. Marks after values point to notes of the source that are not given here.
What was measured:
AAMU-Ab = experiment: Competitive antigen ELISA, cross-reactivity of AAMU-Ab; type: binding, rabbit; conditions: for % Cross-Reaction AAMU-Ab: competitive antigen ELISA, 0 = absence of inhibition or inhibition no higher than 40% at highest concentration tested (5×10^−3 M)
Protocol: (§1) Competitive Antigen ELISA
(§2) Buffers and water without additives are filtered through millipore filters and kept for 1 week. BSA, antibodies, Tween™ 20 and horse radish peroxidase conjugates are added to these buffers and water just prior to use. Urine samples are usually collected 4 hours after drinking a cup of coffee (instant or brewed with approximately 100 mg of caffeine per cup) and stored at −80° C. The urine samples are diluted 10 times with sodium phosphate buffer (620 mosm, pH 7.50) and are subsequently diluted with water to give concentrations of AAMU and 1X no higher than 3×10^−6 M in the ELISA. All the pipettings are done with an eight-channel pipette, except those of the antibody and sample solutions. Starting with the last well, 100 μL of a carbonate buffer (100 mM, pH 9.6) containing 2.5 μg mL-1 antibodies are added to each well. After 90 min. at room temperature, the wells are washed three times with […] of TPB: isotonic sodium phosphate buffer (310 mosm, pH 7.50) containing 0.05% Tween™ 20.
(§3) After the initial wash, unoccupied sites are blocked by incubation for 90 min. at room temperature with 100 μL TBP containing 3% BSA. The wells are washed four times with 100 μL TPB. […] The microplate is gently shaken with an orbital shaker at room temperature for 3-4 hours. The wells are washed three times with 100 μL TPB containing 1% BSA and three times with water containing 0.05% Tween™ 20. To the washed plate is added 150 μL of a substrate buffer composed of citric acid (25 mM) and sodium phosphate dibasic buffer (50 mM, pH 5.0) containing 0.06% hydrogen peroxide and 0.04% o-phenylenediamine hydrochloride.
(§4) Buffers and water without additives were filtered through millipore filters and kept for 1 week. BSA, antibodies, Tween™ 20 and horse radish peroxidase conjugates were added to these buffers and water just prior to use. Urine samples were usually collected 4 hours after drinking a cup of coffee (instant or brewed with approximately 100 mg of caffeine per cup) and stored at −80° C. They were diluted 10 times with sodium phosphate buffer (620 mosm, pH 7.50) and were subsequently diluted with water to give concentrations of AAMU and 1X no higher than 3×10^−6 M in the ELISA. All the pipettings were done with an eight-channel pipette, except those of the antibody and sample solutions. Starting with the last well, 100 μL of a carbonate buffer (100 mM, pH 9.6) containing 2.5 μg mL-1 antibodies was pipetted. After 90 min. at room temperature, the wells were washed three times with 100 μL of TPB: isotonic sodium phosphate buffer (310 mosm, pH 7.50) containing 0.05% Tween™ 20.
(§5) After the initial wash, unoccupied sites were blocked by incubation for 90 min. at room temperature with […] TBP containing 3% BSA. The wells were washed four times with 100 μL TPB. […] The microplate was gently shaken with an orbital shaker at room temperature for 3-4 hours. The wells were washed three times with 100 μL with TPB containing 1% BSA and three times with water containing 0.05% Tween™ 20. To the washed plate was added 150 μL of a substrate buffer composed of citric acid (25 mM) and sodium phosphate dibasic buffer (50 mM, pH 5.0) containing 0.06% hydrogen peroxide and 0.04% o-phenylenediamine hydrochloride. After 20 min. at room temperature with shaking, the reaction was stopped with 50 μL of 2.5 N HCl.
(§6) The cross reactivities of AAMU-Ab and 1X-Ab were tested using a wide variety of caffeine metabolites and structural analogs (Table 2 below).

1X-Ab = experiment: Competitive antigen ELISA, cross-reactivity of 1X-Ab; type: binding, rabbit; conditions: for % Cross-Reaction 1X-Ab: competitive antigen ELISA, 0 = absence of inhibition or inhibition no higher than 40% at highest concentration tested (5×10^−3 M)
Protocol: as §1, §2, §3, §4, §5, §6

[1] = cited from earlier work
S. pneumoniae = conditions: once a day for 10 days, acute bacterial exacerbation of chronic bronchitis; cited from earlier work
[2] = healthy volunteers; cited from earlier work
[3] = cited from earlier work; remark: listed apart in the source

Row | SMILES | % Cross-Reaction AAMU-Ab (AAMU-Ab) | % Cross-Reaction 1X-Ab (1X-Ab) | also measured
1 | Cn1c(=O)c2c(ncn2C)n(C)c1=O [1,3,7-Trimethyl Xanthine (Caffeine), 1,3,7-Trimethyl Xanthine] | 0% | 0% | –
2 | Cn1c(=O)c2[nH]cnc2n(C)c1=O [1,3-Dimethyl Xanthine (Theophylline), 1,3-Dimethyl Xanthine] | 0% | 0.2% | –
3 | Cn1c(=O)[nH]c2ncn(C)c2c1=O [1,7-Dimethyl Xanthine (Paraxanthine), 1,7-Dimethyl Xanthine] | 0% | 0.5% | –
4 | Cn1c(=O)[nH]c2[nH]c(=O)n(C)c2c1=O [1,7-Dimethyluric acid] | 0% | 0% | –
5 | Cn1c(=O)[nH]c2nc[nH]c2c1=O [1-Methyl Xanthine (1X), 1-Methyl Xanthine] | 0% | 100% | IC50 (1X-Ab; read-out: concentration required for 50% inhibition in the competitive antigen ELISA, 1X-Ab, 1X-HRP conjugate): 10 µM
6 | Cn1c(=O)[nH]c2[nH]c(=O)[nH]c2c1=O [1-Methyluric acid] | 0% | 11% | –
7 | Cn1cnc2c1c(=O)[nH]c(=O)n2C [3,7-Dimethyl Xanthine (Theobromine), 3,7-Dimethyl Xanthine] | 0% | 0% | –
8 | Cn1c(=O)[nH]c(=O)c2[nH]cnc21 [3-Methyl Xanthine] | 0% | 0% | –
9 | CC(=O)Nc1c(N)n(C)c(=O)n(C)c1=O [5-Acetamino-6-amino-1,3-dimethyluracil] | 0% | 0% | –
10 | CC(=O)Nc1c(N)n(C)c(=O)[nH]c1=O [5-Acetamino-6-amino-1-methyluracil] | 100% | 0% | IC50 (AAMU-Ab; read-out: concentration required for 50% inhibition in the competitive antigen ELISA, AAMU-Ab, AAMU-HRP conjugate): 1.5 µM
11 | CC(=O)Nc1c(N)[nH]c(=O)[nH]c1=O [5-Acetamino-6-amino-uracil] | 0.6% | 0% | –
12 | Cn1cnc2[nH]c(=O)[nH]c(=O)c21 [7-Methyl Xanthine] | 0% | 0% | –
13 | Cc1nc2[nH]c(=O)[nH]c(=O)c2[nH]1 [8-Methyl Xanthine] | 0% | 0% | –
14 | CC1(C)S[C@@H]2[C@H](NC(=O)Cc3ccccc3)C(=O)N2[C@H]1C(=O)O.CC1(C)S[C@@H]2[C@H](NC(=O)Cc3ccccc3)C(=O)N2[C@H]1C(=O)O.c1ccc(CNCCNCc2ccccc2)cc1 [Benzathine penicillin G] | – | – | duration of low sustained serum levels of penicillin G ([1]; human, in vivo): 1-3 weeks
15 | O=C(N[C@H](CO)[C@H](O)c1ccc([N+](=O)[O-])cc1)C(Cl)Cl [Chloramphenicol] | – | – | CSF concentrations as % of serum levels ([1]; human, in vivo): 30-50%
16 | C[C@H]1c2cccc(O)c2C(=O)C2=C(O)[C@]3(O)C(=O)C(C(N)=O)=C(O)[C@@H](N(C)C)[C@@H]3[C@@H](O)[C@@H]21 [Doxycycline] | – | – | serum half-life ([1]; human, in vivo): 17 to 20 h
17 | Cc1c(F)c(N2CCNC(C)C2)cc2c1c(=O)c(C(=O)O)cn2C1CC1 (stereo not drawn) [Grepafloxacin, grepafloxacin] | – | – | effectiveness against S. pneumoniae, 400 mg per day vs 600 mg per day (S. pneumoniae): may be less effective; time to peak plasma drug concentration after dosing ([1]; human, in vivo): 2 to 3 h; time to steady state concentrations ([1]; once-a-day dosing): ≤ 7 days; bioavailability ([1]; oral): approximately 70%; effect on QTc interval [2]: Prolongation of the QTc Intervals has been observed
18 | Nc1nc2nc[nH]c2c(=O)[nH]1 [Guanine] | 0% | 0% | –
19 | O=c1[nH]cnc2nc[nH]c12 [Hypoxanthine] | 0% | 0% | –
20 | O=c1cc[nH]c(=O)[nH]1 [Uracil] | 0% | 0% | –
21 | O=c1[nH]c(=O)c2[nH]c(=O)[nH]c2[nH]1 [Uric acid] | 0% | 0% | –
22 | O=c1[nH]c(=O)c2[nH]cnc2[nH]1 [Xanthine] | 0^a % | 0% | –
23 | Nc1ccc(S(=O)(=O)c2ccc(N)cc2)cc1 [dapsone] | – | – | adverse reactions to dapsone ([3]; fast acetylators): 17%; adverse reactions to dapsone ([3]; slow acetylators): 46%

Source: patent US20030186339A1, “Individualization of therapy with antibiotic agents” (McGill University, priority 2001, published 2003)
